# Experimental data as given in patent US4283539A, “Isoquinoline acetic acids” (Pfizer Inc., priority 1979, dated 1981).
# Counter-ions that a name gives are not always drawn.
# Target: T1, aldose reductase (Bos taurus, UniProt P16116)
# T1 construct: partially purified aldose reductase enzyme obtained from calf lens; from tissue; host or cells: calf lens
# Experiment: Inhibition of aldose reductase enzyme activity (procedure of U.S. Pat. No. 3,821,383, based on Hayman et al.)
# Type: biochemical
# Details: partially purified aldose reductase from calf lens; for inhibition at 100 µM: 10^-4 M; for inhibition at 10 µM: 10^-5 M
# Text: The activity of the compounds of this invention as aldose reductase inhibitors and as agents for the treatment of diabetic cataracts may be determined by standard pharmacological tests. Such tests include, for example, measuring their ability to inhibit the enzyme activity of isolated aldose reductase, following the general procedure described in U.S. Pat. No. 3,821,383 and based on the procedure of Hayman et al., J. Biol. Chem. 240, 877 (1965). Based on the activity of the compounds of this invention in this test, it is expected that the compounds will also show activity as aldose reductase inhibitors when tested at suitable concentrations in other standard pharmaceutical tests, for example those measuring their ability to reduce or inhibit sorbitol accumulation in the sciatic nerve of acutely streptozotocinized (i.e. diabetic) rats; measuring their ability to reverse already-elevated sorbitol level in the sciatic nerve and lens of chronic streptozotocin-induced diabetic rats; measuring their ability to prevent or inhibit galacticol formation in the lens of acutely galatosemic rats; and measuring their ability to delay cataract formation and reduce the severity of lens opacities in chronic galactosemic rats.
# The compounds produced in Examples 4, 7, 8, 9 and 10 were tested for their ability to reduce or inhibit aldose reductase enzyme activity, following the procedure described in U.S. Pat. No. 3,821,383 and based on the procedure of Hayman et. al., Journal of Biological Chemistry, 240, 877 (1965). The substrate employed was partially purified aldose reductase enzyme obtained from calf lens. The results obtained with each compound at a concentration of 10^-4 M and 10^-5 M are expressed as percent inhibition of enzyme activity.
inhibition at 100 µM,inhibition at 10 µM,Compound
90%,77%,"Cc1c(CC(=O)O)c2ccccc2c(=O)n1OCc1ccc(Cl)c(Cl)c1 [Example 4, 2-(3,4-Dichlorobenzyloxy)-1,2-dihydro-3-methyl-1-oxo-4-isoquinoline Acetic Acid]"
27%,,"Cc1c(CC(=O)O)c2ccccc2c(=O)n1Cc1ccc(Cl)c(Cl)c1 [Example 7, 2-(3,4-Dichlorobenzyl)-1,2-dihydro-3-methyl-1-oxo-4-isoquinoline Acetic Acid]"
83%,95%,"Cc1nc(OCc2ccc(Cl)c(Cl)c2)c2ccccc2c1CC(=O)O [Example 8, 1-(3,4-Dichlorobenzyloxy)-3-methyl-4-isoquinoline Acetic Acid]"
95%,91%,"Cc1nc(Oc2ccc(Cl)cc2)c2ccccc2c1CC(=O)O [Example 9, 1-(4-Chlorophenoxy)-3-methyl-4-isoquinoline Acetic Acid]"
99%,97%,"Cc1nc(N(C)Cc2ccc(Cl)cc2)c2ccccc2c1CC(=O)O [Example 10, 1-(N-4-Chlorobenzyl-N-methyl-amino)-3-methyl-4-isoquinoline Acetic Acid Hydrochloride]"
